# From patent US9927444B2, “Bone marrow-derived hematopoietic progenitor cells and endothelial progenitor cells as prognostic indicators for cancer” (Cornell University, priority 2011, dated 2018)
# How the values were obtained:
# [1] = reversible, managed with dose reductions; cited from earlier work
# SDF1, VEGFR2, C-kit = test: Plasma angiogenic factors and cytokine profiling, phase II TM trial; type: in vivo, human
# Procedure: Plasma SDF-1 was detected by enzyme-linked immunosorbent assay (R&D Systems) according to manufacturer's protocol. Plasma levels of c-kit, VEGF, VEGFR1, VEGFR2, bFGF, and PIGF were detected by multiplex assay (Meso Scale Discovery, Gaithersburg, Md.) per manufacturer protocol.
# (§1) PFS was analyzed using survival analysis techniques.
# [2] = stored under argon; cited from earlier work
# malignant mesothelioma = settings: after adjuvant TM; doubling from 10; cited from earlier work
# [3] = test system: VEGFR2+ endothelial progenitor cells (EPCs); test: Enumeration of circulating EPCs by flow cytometry, phase II TM trial; type: in vivo, human
# Procedure: (§2) Ten to 20 mL of venous blood were collected in EDTA-containing tubes and processed within 12 hours. Peripheral blood mononuclear cells were isolated by Ficoll density-gradient centrifugation. To quantitate circulating EPCs, cells were stained with CD133-PE (Miltenyi Biotec, Auburn, Calif.), VEGFR2-APC (R&D Systems, Minneapolis, Minn.), and CD45-PerCP (BD Biosciences, Franklin Lakes, N.J.). To quantitate HPCs, cells were stained with CD34-FITC (BD Biosciences), VEGFR1-APC (R&D Systems), and CD45-PerCP (BD Biosciences). An aliquot of cells was also stained with the appropriate isotype controls (mouse anti-human IgG1k). Samples were analyzed using a FACSCalibur flow cytometer (Bectin Dickinson, San Jose, Calif.). Three hundred thousand events were collected in the nucleated cell gate (excludes debris and platelets). Data analysis was done using FlowJo software (FlowJo, Ashland, Oreg.). A series of consecutive gates were made to include and exclude acquired events to quantitate specific populations such as CD45^+, CD34^+, VEGFR1^+. The number of EPCs and HPCs per mL of blood was calculated as follows: HPC/mL=(# HPC events/# lymphocyte events)×absolute lymphocyte count (lymphocytes/mL). EPC/mL=(# EPC events/# lymphocyte events)×absolute lymphocyte count (lymphocytes/mL). HPCs were defined as CD45^+, CD34^+, VEGFR1^+ (FIGS. 5A-5C). […]
# as §1
# [4] = test system: breast cancer at high risk for relapse; test: Clinical outcomes (relapse, progression-free survival), phase II TM trial; type: in vivo, human
# Procedure: (§3) This phase II, open-label, single-arm study was conducted to assess patients with breast cancer at high risk for relapse. Patients were enrolled on an Institutional Review Board approved trial (NCT00195091, 0903-882, 0309006307) at Weill Cornell Medical College (WCMC) Iris Cantor Breast Cancer Center. Written informed consent was obtained prior to undergoing any study-specific procedures in accordance with the Declaration of Helsinki.
# Patients underwent imaging of investigator's choice, CT of chest, abdomen, and pelvis or PET/CT every 6 months and as needed to assess for relapse, using Response Evaluation Criteria in Solid Tumors (RECIST).
# as §1
# [5] = test system: advanced malignancy refractory to standard therapy; settings: phase I; cited from earlier work
# [6] = test system: VEGFR1+ hematopoietic progenitor cells (HPCs); test: Enumeration of circulating HPCs by flow cytometry, phase II TM trial; type: in vivo, human; settings: patients on TM
# Procedure: as §2, §1
# serum ceruloplasmin (Cp) = test: Serum ceruloplasmin (Cp) levels / copper depletion, phase II TM trial; type: in vivo, human
# Procedure: as §3
# TM was administered in two phases, induction and maintenance: A) Induction: Patients self-administered TM 180 mg by mouth daily in 4 divided doses until serum Cp levels decreased to a target range of 5-16 mg/dL. One month of TM therapy comprised 1 cycle. Cp levels were tested every 2 weeks for the first 4 weeks and then weekly until target Cp was reached. When Cp levels were within target range, patients were switched to the maintenance phase. B) Maintenance: TM 100 mg taken daily in divided doses. Patients were followed every 2 weeks for 4 weeks to ensure Cp levels were stable then every 4 weeks. Dose reductions in 20 mg increments were allowed to minimize toxicity. Dose increases in 20 mg increments were allowed every 2 weeks to keep Cp levels in target range. […] Patients brought completed medication logs to each visit. The duration of the trial was 2 years.
# The ITT population consisted of 39 patients. […] Target for copper depletion was defined as Cp below 17 mg/dL. Of those who took at least one dose of TM, 59% […] of patients were effectively copper depleted and 15 patients (37.5%) were unable to be copper depleted. Mean Cp of copper depleted pts and non-copper depleted patients was 13.5 and 22.3 mg/dL, respectively (FIG. 1a). Patients spent a median of 78% of time (range 58 to 100%) within target Cp levels during the study . . . . […] 91% of triple-negative patients successfully copper depleted compared to the hormone-receptor subtypes (38-43%) and HER2-positive subtypes (40-67%) (FIG. 7B).
# [7] = in vivo
# Excerpt: (§4) The National Cancer Institute—Common Toxicity Criteria for Adverse Events (CTCAE) version 3.0 were used for toxicity and adverse event reporting. In the event of grade 3/4 toxicity, dosing was held until recovery. Treatment was resumed at the investigator's discretion at 50% of the previous dose. […] In the event of grade 2 toxicity, the dose of TM was held until recovery and a new cycle could be initiated at 100%. If grade 2 toxicity recurred, dosing was held until recovery and the next cycle was resumed at 50%. All patients were available to be evaluated for toxicity.
# (§5) The intent-to-treat (ITT) population consisted of all patients who received at least one dose of TM. […] The following outcomes were recorded: toxicity attributable to TM, time to progression of disease, number of circulating hemangiogenic progenitor cells, serum markers of angiogenesis. Descriptive statistics for demographic and angiogenic variables were calculated for all patients. […] All p-values were two-sided with statistical significance evaluated at the 0.05 alpha level. All analyses were performed in SPSS Version 18.0 (SPSS Inc., Chicago, Ill.).
# [8] = test system: advanced renal cell carcinoma; settings: 13 patients; cited from earlier work
# [9] = Safety and tolerability (CTCAE version 3.0), phase II TM trial
# Excerpt: as §4, §5
smiles,measurement,setting,value
"[SH-].[SH-].[S]=[Mo]=[S] [TM, Tetrathiomolybdate]",patients with grade 3 or 4 hematologic toxicity,[1],up to 40%
same,mean SDF1,"SDF1, VEGFR2, C-kit; non-relapsed patients, decreased from 1870",1811 pg/mL
same,"change in SDF1, VEGFR2, and C-kit","SDF1, VEGFR2, C-kit; patients while on therapy",did not significantly change
same,mean SDF1,"SDF1, VEGFR2, C-kit; patients who relapsed, increased from 2093",3052 pg/mL
same,stability when exposed to air,[2],8 weeks
same,time to progression,malignant mesothelioma,20 months
same,median number of EPCs,"[3]; at 1 year of TM therapy, median baseline 0.0398 (range 0-0.21), range 0-0.18",0.0363 cells/uL
same,EPCs relative to baseline,"[3]; majority of patients, when Cp was in the target range",maintained below baseline
same,10-month PFS,"[4]; all patients, 95% CI, 74.6-96.8%",85.0%
same,patients who developed recurrence,"[4]; first 12 months of study, six patients",15%
same,10-month PFS,[4]; hormone-receptor-positive patients,85.7%
same,10-month PFS,[4]; stage 2 and 3 patients,89.3%
same,10-month PFS,[4]; stage 4 NED patients,75.0%
same,10-month PFS,[4]; triple-negative patients,81.8%
same,induction of copper depletion,[5],effective at inducing copper depletion
same,patients maintaining stable disease for at least 90 days,[5],15 of 40
same,tolerability,[5],well-tolerated
same,change in HPCs,[6],no significant changes
same,patients unable to be copper depleted,serum ceruloplasmin (Cp); 15 patients,37.5%
same,patients successfully copper depleted,serum ceruloplasmin (Cp); HER2-positive subtypes,40-67%
same,mean Cp level on TM,"serum ceruloplasmin (Cp); ITT population, at a median of 4 weeks, median baseline Cp 29.7 mg/dL (range 21 to 47), range 7 to 26",14.2 mg/dL
same,mean Cp of copper depleted pts,serum ceruloplasmin (Cp); copper depleted patients,13.5 mg/dL
same,patients successfully copper depleted,serum ceruloplasmin (Cp); hormone-receptor subtypes,38-43%
same,mean Cp of non-copper depleted patients,serum ceruloplasmin (Cp); non-copper depleted patients,22.3 mg/dL
same,median % of time within target Cp levels during the study,serum ceruloplasmin (Cp); range 58 to 100%,78%
same,patients effectively copper depleted,"serum ceruloplasmin (Cp); those who took at least one dose of TM, target Cp below 17 mg/dL, printed 23/40",59%
same,patients successfully copper depleted,serum ceruloplasmin (Cp); triple-negative patients,91%
same,treatment-related deaths,[7],no treatment-related deaths
same,median duration of stable disease,[8],34.5 weeks
same,"grade 3 anemia, cycles","[9]; 1 cycle, patient later diagnosed with B12 deficiency",0.2%
same,"patients with dose interruptions, delays, reductions, or omissions due to toxicity",[9]; 3 of 39 ITT patients,7.7%
same,"grade 1 peripheral neuropathy, cycles",[9]; 6 cycles,1.4%
same,"grade ¾ neutropenia, patients",[9]; 9 patients,23.1%
same,"grade ¾ neutropenia, cycles",[9]; 13 cycles,3.1%
same,"grade ½ anemia, patients",[9]; 14 patients,35.9%
same,"grade ½ neutropenia, patients",[9]; 23 patients,59.0%
same,"grade 1 fatigue, cycles",[9]; 29 cycles,6.8%
same,"grade ½ anemia, cycles",[9]; 50 cycles,11.7%
same,"grade ½ neutropenia, cycles",[9]; 67 of 426 cycles,15.7%
same,"sulfurous eructations, cycles","[9]; 79 cycles, resolved with a PPI in >90% of patients",18.5%
same,overall tolerability,"[9]; 426 cycles in 39 patients, first 12 months",well tolerated
same,grade 3 or 4 non-hematologic toxicity,[9]; in vivo,no grade 3 or 4 non-hematologic toxicity
same,grade 4 anemia,[9]; in vivo,no grade 4 incidences
same,"grade 1 or 2 gastrointestinal toxicity (nausea, vomiting or diarrhea)",[9]; managed with dose adjustment alone,Eight
